{
  "source": "patent US7342011B2",
  "about": "“Rifamycin analogs and uses thereof” (priority 2003, dated 2008)",
  "type_in_all_cases": "cell-based",
  "key": {"S. pneumo.": {"test_system": "S. pneumo.", "experiment": "MIC assay, S. pneumo."}, "S. aureus": {"test_system": "S. aureus", "experiment": "MIC assay, S. aureus"}, "E. coli": {"test_system": "E. coli", "experiment": "MIC assay, E. coli"}, "H. flu": {"test_system": "H. flu", "experiment": "MIC assay, H. flu"}, "E. faecalis": {"test_system": "E. faecalis", "experiment": "MIC assay, E. faecalis"}},
  "data": [
    {"smiles": "CO[C@H]1/C=C/O[C@@]2(C)Oc3c(C)c(O)c4c(=O)c(c5oc6cc(N7CC[C@@H](N(C)C)C7)cc(O)c6nc-5c4c3C2=O)NC(=O)/C(C)=C\\C=C\\[C@H](C)[C@H](O)[C@@H](C)[C@@H](O)[C@@H](C)[C@H](OC(C)=O)[C@@H]1C", "note": "[Compound 75, 3′-hydroxy-5′-[(3R)-N,N-dimethylamino-1-pyrrolidinyl]benzoxazinorifamycin]", "values": [
      {"measurement": "MIC (μg/mL) S. pneumo.", "setting": "S. pneumo.", "value": 0.00012, "unit": "µg/mL"},
      {"measurement": "MIC (μg/mL) S. aureus", "setting": "S. aureus", "value": 0.002, "unit": "µg/mL"},
      {"measurement": "MIC (μg/mL) E. coli", "setting": "E. coli", "value": 4, "unit": "µg/mL"},
      {"measurement": "MIC (μg/mL) H. flu", "setting": "H. flu", "value": 0.25, "unit": "µg/mL"},
      {"measurement": "MIC (μg/mL) E. faecalis", "setting": "E. faecalis", "value": 0.12, "unit": "µg/mL"}
    ]},
    {"smiles": "CO[C@H]1/C=C/O[C@@]2(C)Oc3c(C)c(O)c4c(=O)c(c5oc6cc(N7CCC(C)(NC(C)=O)CC7)cc(O)c6nc-5c4c3C2=O)NC(=O)/C(C)=C\\C=C\\[C@H](C)[C@H](O)[C@@H](C)[C@@H](O)[C@@H](C)[C@H](OC(C)=O)[C@@H]1C", "note": "[Compound 72, 3′-hydroxy-5′-[4-methyl-4-acetylamino-1-piperidinyl]benzoxazinorifamycin]", "values": [
      {"measurement": "MIC (μg/mL) S. pneumo.", "setting": "S. pneumo.", "value": 0.00025, "unit": "µg/mL"},
      {"measurement": "MIC (μg/mL) S. aureus", "setting": "S. aureus", "value": 0.008, "unit": "µg/mL"},
      {"measurement": "MIC (μg/mL) E. coli", "setting": "E. coli", "value": ">8", "unit": "µg/mL"},
      {"measurement": "MIC (μg/mL) H. flu", "setting": "H. flu", "value": 0.5, "unit": "µg/mL"},
      {"measurement": "MIC (μg/mL) E. faecalis", "setting": "E. faecalis", "value": 2, "unit": "µg/mL"}
    ]},
    {"smiles": "CO[C@H]1/C=C/O[C@@]2(C)Oc3c(C)c(O)c4c(=O)c(c5sc6cc(N7CCC(N(C)C)CC7)ccc6nc-5c4c3C2=O)NC(=O)/C(C)=C\\C=C\\[C@H](C)[C@H](O)[C@@H](C)[C@@H](O)[C@@H](C)[C@H](OC(C)=O)[C@@H]1C", "note": "[Compound 69, 5′-[4-N,N-dimethylamino-1-piperidinyl]benzthiazinorifamycin]", "values": [
      {"measurement": "MIC (μg/mL) S. pneumo.", "setting": "S. pneumo.", "value": 0.00025, "unit": "µg/mL"},
      {"measurement": "MIC (μg/mL) S. aureus", "setting": "S. aureus", "value": 0.015, "unit": "µg/mL"},
      {"measurement": "MIC (μg/mL) E. coli", "setting": "E. coli", "value": 4, "unit": "µg/mL"},
      {"measurement": "MIC (μg/mL) H. flu", "setting": "H. flu", "value": 0.5, "unit": "µg/mL"},
      {"measurement": "MIC (μg/mL) E. faecalis", "setting": "E. faecalis", "value": 0.5, "unit": "µg/mL"}
    ]},
    {"smiles": "CO[C@H]1/C=C/O[C@@]2(C)Oc3c(C)c(O)c4c(=O)c(c5oc6cc(N7C[C@@H]8CCCN(C)[C@@H]8C7)cc(O)c6nc-5c4c3C2=O)NC(=O)/C(C)=C\\C=C\\[C@H](C)[C@H](O)[C@@H](C)[C@@H](O)[C@@H](C)[C@H](O)[C@@H]1C", "note": "[Compound 59, 25-O-deacetyl-3′-hydroxy-5′-[1-methyl-(4aS,7aS)-octahydro-6H-pyrrolo[3,4-b]pyridin-6-yl]benzoxazinorifamycin]", "values": [
      {"measurement": "MIC (μg/mL) S. pneumo.", "setting": "S. pneumo.", "value": 0.001, "unit": "µg/mL"},
      {"measurement": "MIC (μg/mL) S. aureus", "setting": "S. aureus", "value": 0.004, "unit": "µg/mL"},
      {"measurement": "MIC (μg/mL) E. coli", "setting": "E. coli", "value": 4, "unit": "µg/mL"},
      {"measurement": "MIC (μg/mL) H. flu", "setting": "H. flu", "value": 0.12, "unit": "µg/mL"},
      {"measurement": "MIC (μg/mL) E. faecalis", "setting": "E. faecalis", "value": 0.06, "unit": "µg/mL"}
    ]},
    {"smiles": "CO[C@H]1/C=C/O[C@@]2(C)Oc3c(C)c(O)c4c(=O)c(c5oc6cc(N7C[C@H]8CCCN(C(C)=O)[C@H]8C7)cc(O)c6nc-5c4c3C2=O)NC(=O)/C(C)=C\\C=C\\[C@H](C)[C@H](O)[C@@H](C)[C@@H](O)[C@@H](C)[C@H](OC(C)=O)[C@@H]1C", "note": "[Compound 47, 3′-hydroxy-5′-[-acetyl-(4aR,7aR)-octahydro-6H-pyrrolo[3,4-b]pyridin-6-yl]benzoxazinorifamycin]", "values": [
      {"measurement": "MIC (μg/mL) S. pneumo.", "setting": "S. pneumo.", "value": 0.002, "unit": "µg/mL"},
      {"measurement": "MIC (μg/mL) S. aureus", "setting": "S. aureus", "value": 0.008, "unit": "µg/mL"},
      {"measurement": "MIC (μg/mL) E. coli", "setting": "E. coli", "value": ">8", "unit": "µg/mL"},
      {"measurement": "MIC (μg/mL) H. flu", "setting": "H. flu", "value": 0.25, "unit": "µg/mL"},
      {"measurement": "MIC (μg/mL) E. faecalis", "setting": "E. faecalis", "value": 1, "unit": "µg/mL"}
    ]}
  ]
}
